Where a SMILES comes first, the peptide text is derived from it.
Legend:
HPV16-positive cells = assay: Cytotoxicity assay (VITAL FR / live-cell imaging-based) with peptide-specific CD8+ T cells; parameters: species or system human; key: +: cytotox: Ability of peptide-specific T cells to kill HPV16-positive cells.; +*: *highlights data from published resources.; *highlights data from published resources
Description: The flow cytometry based VITAL FR cytotoxicity assay was used as published by Stanke et al. (Stanke et al., 2010) to assess whether peptide-specific T cells are able to specifically kill HPV-transformed target cells. Briefly, two HLA-A2+ cell lines, a HPV16-negative (HPV16−) control cell line (C33A) and a HPV16-positive (HPV16+) target cell line (CaSki) were fluorescently labeled with either FarRed or CFSE and were co-incubated with peptide-specific CD8+ T cells as effector cells. After 48 h co-incubation, the fluorescently labeled cells were analyzed by flow cytometry to determine the surviving cells and calculate the specific cytolytic function of the effector cells by the ratio of target and control cells.
CaSki and C33A cells were fluorescently labeled with CFSE and FarRed, respectively. Cells of both cell lines were harvested and resuspended in plain RPMI medium at a concentration of 1×10^6 cells/mL. For cell labeling, 5 μM CSFE were added to CaSki cells and 0.25 μM FarRed were added to C33A cells. The cells were incubated at 37° C. and the reaction was stopped after 10 min by addition of 50 mL RPMI with 10% FBS. The cells were centrifuged at 300×g for 5 min, the supernatant was discarded and the cells were resuspended in their cell culture medium. The labeled cells were seeded in T25 cell culture flasks with 1-2×10^6 cells/flask.
On the next day, the labeled CaSki and C33A as well as the epitope-specific semi-long-term T cell lines (described in 1.6) were harvested. CD8+ T cells were isolated from the epitope-specific semi-long-term T cell lines using the MACS CD8+ T cell isolation kit (Miltenyi Biotec) according to the manufacturer's protocol for LS columns. The CD8+ T cells were resuspended in T cell medium and added to wells of a F-bottom 96-well plate in serial dilutions to achieve triplicates of 6×10^4, 3×10^4, 1.5×10^4, 0.75×10^4 and 0.375×10^4 cells per well. The CaSki and C33A cells were mixed 1:1 in T cell medium and 3×10^3 cells were added to each well containing T cells. Thereby effector:target (E:T) ratios of […] were achieved. Additionally, triplicates of mixed target cells without T cells were seeded, which is referred to as E:T 0. After 48 h incubation at 37° C., 5% C02, the cells were harvested and analyzed at a BD FACS Canto™ II analyzer using the BD FACS Diva Software Version 6. The obtained data were analyzed with the FlowJo software Version 10 by applying the same gating strategy to all samples. Subsequently, the equations (1) and (2) given below were applied in Excel (Microsoft Office 2016) to calculate specific killing.
Semi long-term T cell lines were set up to obtain high numbers of T cells, which are required for the analysis of epitope specific cytotoxic T cell responses in VITAL FR cytotoxicity assays. Autologous DCs were generated from PBMCs as described in 1.7 and loaded with the desired HPV16 peptide. PBMCs of the same donor were thawed and resuspended in T cell medium supplemented with rhIL-7 (10 ng/mL) and rhIL-15 (20 ng/mL). 1×10^7 PBMCs/well were seeded to a 24-well plate in a total volume of 1 mL/well. Peptide-loaded DCs were added in a ratio of 50:1 (PBMCs:DCs) in 1 mL rhIL-7 (10 ng/mL) and rhIL-15 (20 ng/mL) supplemented T cell medium to achieve a final volume of 2 mL. The cell cultures were fed with rhIL-2 (final concentration: 40 U/mL) every other day. If the medium turned yellow the feeding was combined with a half medium change with 1 mL fresh IL-2 supplemented T cell medium. After eight days, the peptide stimulation with peptide-loaded DCs was repeated and cultivation was continued. On day 15, the T cell lines were harvested and used for CD8+ T cell isolation and cytotoxicity assays.
In addition to the VITAL FR assay described herein above, a newly established live-cell imaging-based cytotoxicity assay was applied. […]

[1] = test system: short-term antigen-specific T cell lines generated from PBMCs; assay: Interferon-γ ELISpot assay on short-term antigen-specific T cell lines; type: cell-based, human; details: HLA restriction A24

Molecule	cytotox: Ability of peptide-specific T cells to kill HPV16-positive cells (HPV16-positive cells; HLA restriction A02)	ELISpot: Immungenicity of the peptide shown by IFN-gamma ELISPOT analysis [1]	cytotox: Ability of peptide-specific T cells to kill HPV16-positive cells (HPV16-positive cells; HLA restriction A24)
CC[C@H](C)[C@H](NC(=O)[C@H](CC(=O)O)NC(=O)[C@H](Cc1c[nH]cn1)NC(=O)[C@@H](NC(=O)[C@@H](NC(=O)[C@@H](N)[C@@H](C)O)[C@@H](C)O)[C@@H](C)CC)C(=O)N[C@H](C(=O)N[C@@H](CC(C)C)C(=O)N[C@@H](CCC(=O)O)C(=O)N[C@@H](CS)C(=O)N[C@H](C(=O)O)C(C)C)[C@@H](C)CC [compound 49] (H-TTIHDIILECV-OH)	+	–	–
83 (TFCCKCDSTL; Human papillomavirus 16) [compound 83]	–	+	+
CC[C@H](C)[C@H](NC(=O)CNC(=O)[C@H](CC(C)C)NC(=O)[C@@H](NC(=O)CNC(=O)[C@H](CCSC)NC(=O)[C@H](CC(C)C)NC(=O)[C@H](CC(C)C)NC(=O)[C@H](CC(=O)O)NC(=O)[C@@H](N)CCC(=O)O)[C@@H](C)O)C(=O)N[C@H](C(=O)O)C(C)C [compound 21] (H-EDLLMGTLGIV-OH)	+	–	–
CSCC[C@H](NC(=O)[C@@H](N)Cc1ccc(O)cc1)C(=O)N[C@@H](CC(C)C)C(=O)N[C@@H](CC(=O)O)C(=O)N[C@@H](CC(C)C)C(=O)N[C@@H](CCC(N)=O)C(=O)N1CCC[C@H]1C(=O)N[C@@H](CCC(=O)O)C(=O)N[C@H](C(=O)N[C@H](C(=O)N[C@@H](CC(=O)O)C(=O)O)[C@@H](C)O)[C@@H](C)O [compound 15]	+	–	–
CC[C@H](C)[C@H](N)C(=O)N[C@@H](CCCNC(=N)N)C(=O)N[C@H](C(=O)N[C@@H](CC(C)C)C(=O)N[C@@H](CCC(=O)O)C(=O)N[C@@H](CC(=O)O)C(=O)N[C@@H](CC(C)C)C(=O)N[C@@H](CC(C)C)C(=O)N[C@@H](CCSC)C(=O)NCC(=O)N[C@H](C(=O)O)[C@@H](C)O)[C@@H](C)O [compound 52] (H-IRTLEDLLMGT-OH)	+	–	–
CC[C@H](C)[C@H](NC(=O)CNC(=O)[C@H](CC(C)C)NC(=O)[C@@H](NC(=O)CNC(=O)[C@H](CCSC)NC(=O)[C@H](CC(C)C)NC(=O)[C@@H](N)CC(C)C)[C@@H](C)O)C(=O)N[C@H](C(=O)N[C@@H](CS)C(=O)N1CCC[C@H]1C(=O)O)C(C)C [compound 44] (H-LLMGTLGIVCP-OH)	+	–	–
CSCC[C@H](N)C(=O)N[C@@H](CC(C)C)C(=O)N[C@@H](CC(=O)O)C(=O)N[C@@H](CC(C)C)C(=O)N[C@@H](CCC(N)=O)C(=O)N1CCC[C@H]1C(=O)N[C@@H](CCC(=O)O)C(=O)N[C@H](C(=O)O)[C@@H](C)O [compound 16] (H-MLDLQPET-OH)	+	–	–
CC[C@H](C)[C@H](NC(=O)[C@@H]1CCCN1C(=O)[C@H](CS)NC(=O)[C@@H](NC(=O)[C@@H](NC(=O)CNC(=O)[C@H](CC(C)C)NC(=O)[C@@H](NC(=O)CNC(=O)[C@@H](N)CCSC)[C@@H](C)O)[C@@H](C)CC)C(C)C)C(=O)O [compound 33] (H-MGTLGIVCPI-OH)	+	–	–
CSCC[C@H](NC(=O)[C@@H](N)Cc1ccc(O)cc1)C(=O)N[C@@H](CC(C)C)C(=O)N[C@@H](CC(=O)O)C(=O)N[C@@H](CC(C)C)C(=O)N[C@@H](CCC(N)=O)C(=O)N1CCC[C@H]1C(=O)N[C@@H](CCC(=O)O)C(=O)O [compound 32] (H-YMLDLQPE-OH)	+	–	–
CSCC[C@H](NC(=O)[C@H](CC(C)C)NC(=O)[C@H](CC(C)C)NC(=O)[C@H](CC(=O)O)NC(=O)[C@H](CCC(=O)O)NC(=O)[C@H](CC(C)C)NC(=O)[C@@H](NC(=O)[C@@H](N)CCCNC(=N)N)[C@@H](C)O)C(=O)NCC(=O)N[C@H](C(=O)N[C@@H](CC(C)C)C(=O)O)[C@@H](C)O [compound 19] (H-RTLEDLLMGTL-OH)	+	–	–
CC(C)C[C@H](NC(=O)[C@@H](N)CCCNC(=N)N)C(=O)N[C@@H](CS)C(=O)N[C@H](C(=O)N[C@@H](CCC(N)=O)C(=O)N[C@@H](CO)C(=O)N[C@H](C(=O)N[C@@H](Cc1c[nH]cn1)C(=O)N[C@H](C(=O)O)C(C)C)[C@@H](C)O)C(C)C [compound 17] (H-RLCVQSTHV-OH)	+	–	–
